Test results: patent publication US8552208B2, “Analogs of tetramic acid” (University of Tennesseee Research Foundation, priority 2007, dated 2013)
≈ marks a conversion by molar mass, not a printed value. Like-named read-outs stand apart in the source and are kept apart here.

Columns and labels:
[1] = tested on: Mycobacterium tuberculosis H37 Rv; assay: Antibacterial activity assay (MIC, broth dilution); format: cell-based; settings: H37RV, 168 h; Mycobacterium tuberculosis H37 Rv; […]; read-out: MIC, TB
[2] = tested on: Bacillus anthracis Sterne 34F2; assay: microbe, parasite or virus in culture; format: cell-based; settings: STERNE34F2, read-out: MIC, BA
[3] = tested on: Bacillus subtilis ATCC 23857; assay: Antibacterial activity assay (MIC, broth dilution); format: cell-based; settings: ATCC23857; Bacillus subtilis ATCC 23857; read-out: MIC, BS
[4] = tested on: Streptococcus pneumoniae DAW30EC; assay: Antibacterial activity assay (MIC, broth dilution); format: cell-based; settings: Streptococcus pneumoniae DAW30EC; read-out: MIC, SPn
[5] = tested on: Enterococcus faecalis ATCC 33186; assay: Antibacterial activity assay (MIC, broth dilution); format: cell-based; settings: ATCC33186; Enterococcus faecalis ATCC 33186; read-out: MIC, EF
[6] = tested on: Methicillin Resistant Staphylococcus aureus ATCC 33591; assay: Antibacterial activity assay (MIC, broth dilution); format: cell-based; settings: ATCC 33591 / MRSA, read-out: MIC, MRSA
[7] = tested on: Methicillin sensitive Staphylococcus aureus 8325 ATCC 35556; assay: Antibacterial activity assay (MIC, broth dilution); format: cell-based; settings: ATCC 35556 / MSSA; Methicillin sensitive Staphylococcus aureus 8325 ATCC 35556; read-out: MIC, MSSA
[8] = tested on: Propionibacterium acnes ATCC 6919; assay: Antibacterial activity assay (MIC, broth dilution); format: cell-based; settings: Cutibacterium acnes, ATCC6919; Propionibacterium acnes ATCC 6919; read-out: MIC, PA
[9] = tested on: Streptococcus pyogenes ATCC 700294; assay: Antibacterial activity assay (MIC, broth dilution); format: cell-based; settings: ATCC700294; Streptococcus pyogenes ATCC 700294; read-out: MIC, SP
Cytotoxicity assay (MTT) = format: cell-based, monkey; settings: monkey, Vero cells, 72 hours, MTT, read-out: IC50 (Cytotoxicity): Concentration which reduces viability of Vero kidney cells by 50%
Method: (§1) Cytotoxicity assays of drugs of Formula I of Example 3 and of Formula II of Example 5 were performed using the Vero monkey kidney cell line (ATCC, CCL-81). Vero cells were grown in tissue culture flasks in Dulbecco's Modified Eagle's Medium (ATCC) supplemented with 10% fetal bovine serum and maintained in a humidified incubator (37° C., 5% CO2). Cells were removed with a cell scraper, collected by centrifugation and then suspended in fresh medium at ˜10^6 cells/mL. The cell suspensions were dispensed into 96-well microtiter plates (100 μl/well) and incubated for 18 hours at 37° C. before being used for cytotoxicity assays. Test compounds were subsequently added at concentrations ranging from 400-0.024 μg/mL and 0.1% vol/vol of Triton-X 100, which causes 100% death of cells, was included as a control. After incubating cells and compounds for 72 hours in humid air (37° C., 5% CO2) the cytopathic effects of compounds were determined using the MTT Cell Proliferation Assay (ATCC, Cat No. 30-1010K). The MTT solution reagent (10 μl) was added to each well and plates incubated at 37° C. until sufficient purple color development occurred in cells (3 hours). After detergent cell lysis, the purple formazan product was measured at 570 nm in a Synergy HT Biotek microplate reader. IC50 data was obtained from dose response curves plotted from percentage activity versus log10 concentration using Graphpad prism 5.

[10] = tested on: Vero monkey kidney cell line (ATCC, CCL-81); assay: Cytotoxicity assay (MTT); format: cell-based; settings: IC50 divided by MIC against S. aureus 8325
Method: as §1

[11] = tested on: clinical isolates of MRSA (methicillin resistant S. aureus); format: cell-based
[12] = tested on: clinical isolates of MSSA (methicillin sensitive S. aureus); format: cell-based
[13] = tested on: MRSA (ATCC 35391) biofilm; assay: Calgary Biofilm Device anti-biofilm activity; format: cell-based, Staphylococcus aureus; settings: for MIC: read-out: MBIC = Minimum Biofilm Inhibitory Concentration
[14] = tested on: S. epidermidis (RP62A) biofilm; assay: Calgary Biofilm Device anti-biofilm activity; format: cell-based; settings: Staphylococcus epidermidis; for MIC: read-out: MBIC = Minimum Biofilm Inhibitory Concentration
[15] = tested on: MSSA (ATCC 25293) biofilm; assay: Calgary Biofilm Device anti-biofilm activity; format: cell-based; settings: Staphylococcus aureus; for MBC: read-out: MBEC = Minimum Biofilm Eradication Concentration
[16] = Vero monkey kidney cells (ATCC CCL-81)

Row | SMILES | MIC [1] [µg/mL] | MIC [2] [µg/mL] | MIC [3] [µg/mL] | MIC [4] [µg/mL] | MIC [5] [µg/mL] | MIC [6] [µg/mL] | MIC [7] [µg/mL] | MIC [8] [µg/mL] | MIC [9] [µg/mL] | IC50/MIC = Selectivity (therapeutic) index [10] | IC50 at 72 h (Cytotoxicity assay (MTT); [16]) [µg/mL] | also measured
1 | C/C(O)=C1\C(=O)[C@@H](CC(C)C)N(Cc2ccc(F)cc2)C1=O [Compound 13f, (R,Z)-1-(4-fluorobenzyl)-3-(1-hydroxyethylidene)-5-isobutylpyrrolidine-2,4-dione] | 100 (≈ 327 µM) | 12.5 (≈ 40.9 µM) | 12.5 (≈ 40.9 µM) | 25 (≈ 81.9 µM) | 50 (≈ 164 µM) | 12.5 (≈ 40.9 µM) | 12.5 (≈ 40.9 µM) | 12.5 (≈ 40.9 µM) | 100 (≈ 327 µM) | 2.8 |  | IC50 at 72 h (Cytotoxicity assay (MTT)): 35.3 µg/mL
2 | C/C(O)=C1\C(=O)[C@@H](Cc2ccccc2)N(Cc2ccccc2)C1=O [Compound 13g, (R,Z)-1,5-dibenzyl-3-(1-hydroxyethylidene)pyrrolidine-2,4-dione] | > 200 | 25 (≈ 77.8 µM) | 25 (≈ 77.8 µM) | 50 (≈ 156 µM) | 100 (≈ 311 µM) | 25 (≈ 77.8 µM) | 25 (≈ 77.8 µM) | 25 (≈ 77.8 µM) | 200 (≈ 622 µM) | 3.2 | 80.6 | 
3 | CCCCN1C(=O)/C(=C(/C)O)C(=O)[C@@H]1CC(C)C [Compound 13j, (S,Z)-1-butyl-3-(1-hydroxyethylidene)-5-isobutylpyrrolidine-2,4-dione] | 100 (≈ 395 µM) | 12.5 (≈ 49.3 µM) | 6.25 (≈ 24.7 µM) | 100 (≈ 395 µM) | 1.6 (≈ 6.32 µM) | 6.25 (≈ 24.7 µM) | 3.12 (≈ 12.3 µM) | 0.8 (≈ 3.16 µM) | > 200 | 81.4 |  | IC50 at 72 h (Cytotoxicity assay (MTT)): 254 µg/mL; Antibiotic MIC ([11]; isolate MRSA-1): 50 µg/mL; Antibiotic MIC ([11]; isolate MRSA-2): 25 µg/mL; Antibiotic MIC ([11]; isolate MRSA-3): 25 µg/mL; Antibiotic MIC ([11]; isolate MRSA-4): 25 µg/mL; Antibiotic MIC ([11]; isolate MRSA-5): 25 µg/mL; Antibiotic MIC ([11]; isolate MRSA-6): 25 µg/mL; Antibiotic MIC ([11]; isolate MRSA-7): 50 µg/mL; Antibiotic MIC ([11]; isolate MRSA-9): 6.25 µg/mL; Antibiotic MIC ([11]; isolate MRSA-10): 50 µg/mL; Antibiotic MIC ([12]; isolate MSSA-11): 12.5 µg/mL; Antibiotic MIC ([12]; isolate MSSA-12): 6.25 µg/mL; Antibiotic MIC ([12]; isolate MSSA-13): 12.5 µg/mL; Antibiotic MIC ([12]; isolate MSSA-14): 25 µg/mL; Antibiotic MIC ([12]; isolate MSSA-15): 3.12 µg/mL; Antibiotic MIC ([12]; isolate MSSA-16): 6.25 µg/mL; Antibiotic MIC ([12]; isolate MSSA-17): 6.25 µg/mL; Antibiotic MIC ([12]; isolate MSSA-18): 6.25 µg/mL; Antibiotic MIC ([12]; isolate MSSA-19): 3.12 µg/mL; Antibiotic MIC ([12]; isolate MSSA-20): 25 µg/mL
4 | CCCCCCCCCCN1C(=O)/C(=C(/C)O)C(=O)[C@@H]1Cc1ccccc1 [Compound 13n, (S,Z)-5-benzyl-1-decyl-3-(1-hydroxyethylidene)pyrrolidine-2,4-dione] | 50 (≈ 135 µM) | 0.2 (≈ 0.538 µM) | 0.4 (≈ 1.08 µM) | 12.5 (≈ 33.6 µM) | 0.8 (≈ 2.15 µM) | 0.8 (≈ 2.15 µM) | 0.2 (≈ 0.538 µM) | 0.4 (≈ 1.08 µM) | 50 (≈ 135 µM) | 105.5 | 21.1 | Antibiotic MIC ([11]; isolate MRSA-1): 1.6 µg/mL; Antibiotic MIC ([11]; isolate MRSA-2): 1.6 µg/mL; Antibiotic MIC ([11]; isolate MRSA-3): 1.6 µg/mL; Antibiotic MIC ([11]; isolate MRSA-4): 0.8 µg/mL; Antibiotic MIC ([11]; isolate MRSA-5): 0.8 µg/mL; Antibiotic MIC ([11]; isolate MRSA-6): 0.8 µg/mL; Antibiotic MIC ([11]; isolate MRSA-7): 0.8 µg/mL; Antibiotic MIC ([11]; isolate MRSA-8): 0.2 µg/mL; Antibiotic MIC ([11]; isolate MRSA-9): 0.8 µg/mL; Antibiotic MIC ([11]; isolate MRSA-10): 0.8 µg/mL; Antibiotic MIC ([12]; isolate MSSA-11): 0.8 µg/mL; Antibiotic MIC ([12]; isolate MSSA-12): 0.8 µg/mL; Antibiotic MIC ([12]; isolate MSSA-13): 0.8 µg/mL; Antibiotic MIC ([12]; isolate MSSA-14): 1.6 µg/mL; Antibiotic MIC ([12]; isolate MSSA-15): 0.2 µg/mL; Antibiotic MIC ([12]; isolate MSSA-16): 0.8 µg/mL; Antibiotic MIC ([12]; isolate MSSA-17): 0.8 µg/mL; Antibiotic MIC ([12]; isolate MSSA-18): 0.8 µg/mL; Antibiotic MIC ([12]; isolate MSSA-19): 0.4 µg/mL; Antibiotic MIC ([12]; isolate MSSA-20): 0.8 µg/mL
5 | CCCCCCCCCCN1C(=O)/C(=C(/C)O)C(=O)[C@H]1CC(C)C [Compound 13o, (R,Z)-1-decyl-3-(1-hydroxyethylidene)-5-isobutylpyrrolidine-2,4-dione] | 25 (≈ 74.1 µM) | 0.8 (≈ 2.37 µM) | 0.8 (≈ 2.37 µM) | 6.25 (≈ 18.5 µM) | 1.6 (≈ 4.74 µM) | 0.8 (≈ 2.37 µM) | 0.4 (≈ 1.19 µM) | 0.8 (≈ 2.37 µM) | 50 (≈ 148 µM) | 15.8 | 6.3 | 
6 | CO[C@H]1/C=C/O[C@@]2(C)Oc3c(C)c(O)c4c(O)c(c(/C=N/N5CCN(C)CC5)c(O)c4c3C2=O)NC(=O)/C(C)=C\C=C\[C@H](C)[C@H](O)[C@@H](C)[C@@H](O)[C@@H](C)[C@H](OC(C)=O)[C@@H]1C [Rifampicin, rifampicin, reference compound] |  |  |  |  |  |  |  |  |  |  |  | MBIC = Minimum Biofilm Inhibitory Concentration ([13]; MRSA biofilm, triplicate runs listed singly): <0.2 µg/mL; MIC ([13]; Staphylococcus aureus, MRSA biofilm, triplicate runs listed singly): < 0.2 µg/mL; MIC ([14]; S. epidermidis biofilm, triplicate runs listed singly): < 0.2 µg/mL; MBC ([15]; MSSA biofilm, triplicate runs listed singly): 100 µg/mL (≈ 122 µM); MIC ([15]; MSSA biofilm, triplicate runs listed singly, read-out: MBIC = Minimum Biofilm Inhibitory Concentration): 0.4 µg/mL (≈ 0.486 µM)
7 | CN[C@H](CC(C)C)C(=O)N[C@H]1C(=O)N[C@@H](CC(N)=O)C(=O)N[C@H]2C(=O)N[C@H]3C(=O)N[C@H](C(=O)N[C@H](C(=O)O)c4cc(O)cc(O)c4-c4cc3ccc4O)[C@H](O)c3ccc(c(Cl)c3)Oc3cc2cc(c3O[C@@H]2O[C@H](CO)[C@@H](O)[C@H](O)[C@H]2O[C@H]2C[C@](C)(N)[C@H](O)[C@H](C)O2)Oc2ccc(cc2Cl)[C@H]1O [Vancomycin, vancomycin, reference compound] |  |  |  |  |  |  |  |  |  |  |  | MBC ([13]; Staphylococcus aureus, read-out: MBEC = Minimum Biofilm Eradication Concentration): > 400 µg/mL; MIC ([13]; Staphylococcus aureus): 1.6 µg/mL (≈ 1.1 µM); MBC ([14]; read-out: MBEC = Minimum Biofilm Eradication Concentration): > 400 µg/mL; MIC [14]: 12.5 µg/mL (≈ 8.63 µM); MBC [15]: > 400 µg/mL
